In publication PMC11571207, “Stereorandomized Oncocins with Preserved Ribosome Binding and Antibacterial Activity” (Journal of Medicinal Chemistry, 2024):
Where two headings read alike, the source gives them in different places. No end group written: not given here.

What was measured:
[1] = test system: P. aeruginosa PA14 4.13 (phoQ); conditions: for MIC P. aeruginosa PA14 4.13 (phoQ), 12.5% MHB / MIC P. aeruginosa PA14 4.13 (phoQ), full MHB: polymyxin B resistant strain, 16–20 h at 37 °C; for MIC P. aeruginosa PA14 4.13 (phoQ), 12.5% MHB: 12.5% MHB pH 7.4; for MIC P. aeruginosa PA14 4.13 (phoQ), full MHB: full MHB pH 7.4; for MIC P. aeruginosa PA14 4.13: supplement CSV
K. pneumoniae OXA-48 = experiment: microbe, parasite or virus in culture; conditions: for MIC K. pneumoniae OXA-48, 12.5% MHB / MIC K. pneumoniae OXA-48, full MHB: carbapenem-resistant, 16–20 h at 37 °C; for MIC K. pneumoniae OXA-48, 12.5% MHB: 12.5% MHB pH 7.4; for MIC K. pneumoniae OXA-48, full MHB: full MHB pH 7.4; for MIC K. pneumoniae OXA-48: supplement CSV
Experimental: (§1) Minimum inhibitory concentration assay
(§2) Antimicrobial activity was assayed against P. aeruginosa PAO1, K. pneumoniae NCTC418, E. coli W3110, A. baumannii ATCC 19606, methicillin-resistant S. aureus COL (MRSA), and for selected peptides on P. aeruginosa PA14 and the polymyxin-B-resistant derivative PA14 2P4, as well as the clinical isolates ZEM-1A and ZEM9A, K. pneumoniae OXA-48, S. aureus Newman, Enterobacter cloacae and Burkholderia cenocepacia. The minimal inhibitory concentration (MIC) was determined by using broth microdilution method. A colo ny of bacteria was picked and grown in Luria-Bertani (LB) medium overnight at 37°C. For E. coli BW25113 sbmA::kan the medium was supplemented with 25 mg/L of kanamycin. The next day, the culture was then regrown in LB medium to log phase (OD600 = 0.6 to 0.8), which lasted approximately 4 h, and diluted to an OD600 of 0.022 in the desired medium. Stock solutions of 1 mg/mL of the samples were prepared in sterilized milliQ water and diluted to the beginning concentration of 64 μg/mL in 300 μL Mueller Hinton (MH)-medium. The diluted samples were added to first well of 96-well microtiter plate (TPP, untreated, Faust Laborbedarf, AG, Schaffhausen) and diluted serially by ½. Finally, 4 μL of the bacterial suspension was inoculated into the sample solutions (150 μL/well) with a final inoculation of about 5∙10^5 CFU/mL. The plates were then incubated at 37°C for 15-18h. For each assay, sterility (broth only) and growth control (broth with bacterial inoculum, without antibiotics) were checked with two columns in the plate. The next day, 15 μL of 3-(4,5-dimethylthiazol-2-yl)-2,5-diphenyltetrazolium bromide (MTT) was added to each well of the plate, such a way that MIC was defined as the lowest concentration of the peptide that inhibited visible growth of the tested

[2] = test system: P. aeruginosa PA14 2P4 (pmrB); experiment: microbe, parasite or virus in culture; conditions: for MIC P. aeruginosa PA14 2P4 (pmrB), 12.5% MHB / MIC P. aeruginosa PA14 2P4 (pmrB), full MHB: polymyxin B resistant strain, 16–20 h at 37 °C; for MIC P. aeruginosa PA14 2P4 (pmrB), 12.5% MHB: 12.5% MHB pH 7.4; for MIC P. aeruginosa PA14 2P4 (pmrB), full MHB: full MHB pH 7.4; for MIC P. aeruginosa PA14 2P4: supplement CSV
Experimental: as §1, §2

P. aeruginosa PA14 = experiment: microbe, parasite or virus in culture; conditions: for MIC P. aeruginosa PA14, 12.5% MHB: 12.5% MHB pH 7.4; for MIC P. aeruginosa PA14, 12.5% MHB / MIC P. aeruginosa PA14, full MHB: 16–20 h at 37 °C, two different duplicate MIC determinations; for MIC P. aeruginosa PA14, full MHB: full MHB pH 7.4; for MIC P. aeruginosa PA14: supplement CSV
Experimental: as §1, §2

E. cloacae = experiment: microbe, parasite or virus in culture; conditions: for MIC E. cloacae, 12.5% MHB: 12.5% MHB pH 7.4; for MIC E. cloacae, 12.5% MHB / MIC E. cloacae, full MHB: 16–20 h at 37 °C; for MIC E. cloacae, full MHB: full MHB pH 7.4; for MIC E. cloacae: supplement CSV
Experimental: as §1, §2

P. aeruginosa ZEM9A = experiment: microbe, parasite or virus in culture; conditions: for MIC P. aeruginosa ZEM9A, 12.5% MHB / MIC P. aeruginosa ZEM9A, full MHB: clinical isolate, 16–20 h at 37 °C; for MIC P. aeruginosa ZEM9A, 12.5% MHB: 12.5% MHB pH 7.4; for MIC P. aeruginosa ZEM9A, full MHB: full MHB pH 7.4; for MIC P. aeruginosa ZEM9A: supplement CSV
Experimental: as §1, §2

P. aeruginosa ZEM-1A = experiment: microbe, parasite or virus in culture; conditions: for MIC P. aeruginosa ZEM-1A, 12.5% MHB / MIC P. aeruginosa ZEM-1A, full MHB: clinical isolate, 16–20 h at 37 °C, cells marked c: single measurement (in duplicates); for MIC P. aeruginosa ZEM-1A, 12.5% MHB: 12.5% MHB pH 7.4; for MIC P. aeruginosa ZEM-1A: supplement CSV; for MIC P. aeruginosa ZEM-1A, full MHB: full MHB pH 7.4
Experimental: as §1, §2

[3] = test system: E. coli BW25113 sbmA::kan; conditions: Table S1, sbmA::kan mutant, 16-20 h at 37 °C; for MIC E. coli BW25113 SbmA-, 12.5% MH: 12.5% Müller-Hinton medium pH 7.4; for MIC E. coli BW25113 SbmA-, Full MH: full Müller-Hinton medium pH 7.4
Experimental: as §1
as §2, with “tested […]” for “tested”
(§3) Table S1. Activity of stereorandomized and diastereomeric oncocins against E. coli BW25113 WT and BW25113 sbmA::kan mutant in full and 12.5% MH, at pH 7.4. […]
(§4) a) Minimum inhibitory concentration (MIC, μg/mL) was determined on E. coli BW25113 WT and […]

E. coli BW25113 WT = conditions: Table S1, 16-20 h at 37 °C; for MIC E. coli BW25113 WT, 12.5% MH: 12.5% Müller-Hinton medium pH 7.4; for MIC E. coli BW25113 WT, Full MH: full Müller-Hinton medium pH 7.4
Experimental: as §1
as §2, with “tested […]” for “tested”
as §3, §4

human red blood cells = experiment: Hemolysis assay, minimum hemolytic concentration; conditions: for Haemolysis on hRBC, MHC: 2.5% human red blood cells (final) in 10 mM phosphate, 150 mM NaCl, pH 7.4, 25 °C, 4 h, visual inspection; for MHC human red blood cells: supplement CSV

Substance | MIC P. aeruginosa PA14 4.13 (phoQ), 12.5% MHB [1] | MIC P. aeruginosa PA14 4.13 (phoQ), full MHB [1] | MIC P. aeruginosa PA14 4.13 ([1]; 12.5% MH pH 7.4) | MIC P. aeruginosa PA14 4.13 ([1]; full MH pH 7.4) | MIC K. pneumoniae OXA-48, 12.5% MHB (K. pneumoniae OXA-48) | MIC K. pneumoniae OXA-48, full MHB (K. pneumoniae OXA-48) | MIC K. pneumoniae OXA-48 (K. pneumoniae OXA-48; 12.5% MH pH 7.4) | MIC K. pneumoniae OXA-48 (K. pneumoniae OXA-48; full MH pH 7.4) | MIC P. aeruginosa PA14 2P4 (pmrB), 12.5% MHB [2] | MIC P. aeruginosa PA14 2P4 (pmrB), full MHB [2] | MIC P. aeruginosa PA14 2P4 ([2]; 12.5% MH pH 7.4) | MIC P. aeruginosa PA14 2P4 ([2]; full MH pH 7.4) | MIC P. aeruginosa PA14, 12.5% MHB (P. aeruginosa PA14) | MIC P. aeruginosa PA14, full MHB (P. aeruginosa PA14) | MIC P. aeruginosa PA14 (P. aeruginosa PA14; 12.5% MH pH 7.4) | MIC P. aeruginosa PA14 (P. aeruginosa PA14; full MH pH 7.4) | MIC E. cloacae, 12.5% MHB (E. cloacae) | MIC E. cloacae, full MHB (E. cloacae) | MIC E. cloacae (E. cloacae; 12.5% MH pH 7.4) | MIC P. aeruginosa ZEM9A, 12.5% MHB (P. aeruginosa ZEM9A) | also measured
VDKPPYLPRPRPPRRIYNR-NH2 [L-Onc, reference compound] | 16 µg/mL | > 64 µg/mL | 16 µg/mL | >64 µg/mL | 2 µg/mL | 32 µg/mL | 2 µg/mL | 32 µg/mL | 16 µg/mL | > 64 µg/mL | 16 µg/mL | >64 µg/mL | 32 µg/mL | > 64 µg/mL | 32 µg/mL | >64 µg/mL | 1 µg/mL | 32 µg/mL | 1 µg/mL | 32 µg/mL | MIC E. cloacae (E. cloacae; full MH pH 7.4): 32 µg/mL; MIC P. aeruginosa ZEM9A, full MHB (P. aeruginosa ZEM9A): > 64 µg/mL; MIC P. aeruginosa ZEM9A (P. aeruginosa ZEM9A; 12.5% MH pH 7.4): 32 µg/mL; MIC P. aeruginosa ZEM9A (P. aeruginosa ZEM9A; full MH pH 7.4): >64 µg/mL; MIC P. aeruginosa ZEM-1A, 12.5% MHB (P. aeruginosa ZEM-1A): 8 to 16 µg/mL; MIC P. aeruginosa ZEM-1A (P. aeruginosa ZEM-1A; 12.5% MH pH 7.4): 8 to 16 µg/mL; MIC E. coli BW25113 SbmA-, 12.5% MH [3]: 8 µg/mL; MIC E. coli BW25113 WT, 12.5% MH (E. coli BW25113 WT): 4 µg/mL; MIC E. coli BW25113 WT, Full MH (E. coli BW25113 WT): 16 to 32 µg/mL; Haemolysis on hRBC, MHC (human red blood cells): >1000 µg/mL; MHC human red blood cells (human red blood cells): >1000 µg/mL
VDKPPYLPRPRPPRRIYNR [sr-Onc] (VDKPPYLPRPRPPRRIYNR-NH2; also: all 19 residues stereorandomized (1:1 L/D mixture)) | 16 µg/mL | > 64 µg/mL | 16 µg/mL | >64 µg/mL | >64/>64 μg/mL | >64/>64 μg/mL | >64 µg/mL | >64 µg/mL | 16 µg/mL | > 64 µg/mL | 16 µg/mL | >64 µg/mL | 32 µg/mL | > 64 µg/mL | 32 µg/mL | >64 µg/mL | 8 µg/mL | > 64 µg/mL | 8 µg/mL | 32 µg/mL | MIC E. cloacae (E. cloacae; full MH pH 7.4): >64 µg/mL; MIC P. aeruginosa ZEM9A, full MHB (P. aeruginosa ZEM9A): > 64 µg/mL; MIC P. aeruginosa ZEM9A (P. aeruginosa ZEM9A; 12.5% MH pH 7.4): 32 µg/mL; MIC P. aeruginosa ZEM9A (P. aeruginosa ZEM9A; full MH pH 7.4): >64 µg/mL; MIC P. aeruginosa ZEM-1A, 12.5% MHB (P. aeruginosa ZEM-1A): >64/64 ^c μg/mL; MIC P. aeruginosa ZEM-1A, full MHB (P. aeruginosa ZEM-1A): >64/64 ^c μg/mL; MIC P. aeruginosa ZEM-1A (P. aeruginosa ZEM-1A; 12.5% MH pH 7.4): 64 µg/mL; MIC P. aeruginosa ZEM-1A (P. aeruginosa ZEM-1A; full MH pH 7.4): >64 µg/mL; MIC E. coli BW25113 SbmA-, 12.5% MH [3]: 8 to 16 µg/mL; MIC E. coli BW25113 SbmA-, Full MH [3]: > 64 µg/mL; MIC E. coli BW25113 WT, 12.5% MH (E. coli BW25113 WT): 8 µg/mL; MIC E. coli BW25113 WT, Full MH (E. coli BW25113 WT): > 64 µg/mL; Haemolysis on hRBC, MHC (human red blood cells): >1000 µg/mL; MHC human red blood cells (human red blood cells): >1000 µg/mL
polymyxin B [PMB, reference compound] | 2/2 μg/mL | 2/2 μg/mL | 2 µg/mL | 2 µg/mL | 1–2/1–2 μg/mL | 1–2/1–2 μg/mL | 1 to 2 µg/mL | 1 to 2 µg/mL | 1 µg/mL | 4 µg/mL | 1 µg/mL | 4 µg/mL | 1 µg/mL | < 0.5 µg/mL | 1 µg/mL | <0.5 µg/mL | 1 to 2 µg/mL | 2 µg/mL | 1 to 2 µg/mL | 2 µg/mL | MIC P. aeruginosa ZEM9A, full MHB (P. aeruginosa ZEM9A): > 64 µg/mL; MIC P. aeruginosa ZEM9A (P. aeruginosa ZEM9A; 12.5% MH pH 7.4): 2 µg/mL; MIC P. aeruginosa ZEM9A (P. aeruginosa ZEM9A; full MH pH 7.4): >64 µg/mL; MIC P. aeruginosa ZEM-1A, 12.5% MHB (P. aeruginosa ZEM-1A): 8 µg/mL; MIC P. aeruginosa ZEM-1A, full MHB (P. aeruginosa ZEM-1A): 16 µg/mL; MIC P. aeruginosa ZEM-1A (P. aeruginosa ZEM-1A; 12.5% MH pH 7.4): 8 µg/mL; MIC P. aeruginosa ZEM-1A (P. aeruginosa ZEM-1A; full MH pH 7.4): 16 µg/mL; MIC E. coli BW25113 SbmA-, 12.5% MH [3]: 1 µg/mL; MIC E. coli BW25113 SbmA-, Full MH [3]: 1 µg/mL; MIC E. coli BW25113 WT, 12.5% MH (E. coli BW25113 WT): 1 to 2 µg/mL; MIC E. coli BW25113 WT, Full MH (E. coli BW25113 WT): 2 µg/mL
